Results taken from a melting point compilation (Tetko et al.; mined from patent text by program, amines drawn as free bases though some values may be those of a salt).

Compound | melting point [°C]
Clc1nc2c([nH]1)CCCCC2 | 214 to 215
CC(Cl)C(=O)Nc1cccc2c1C(=O)c1cccc(NC(=O)C(C)Cl)c1C2=O (configuration not stated) | 288 to 289
O=C(Nc1ccc(-n2nc(C(F)(F)F)cc2C(F)(F)F)cc1)c1ccccc1 | 177 to 178
CCCCCCCCCCC1C(=O)NC(=O)NC1=O | 190
CC1C(=NO)CC2(O)C3Cc4ccc(O)c5c4C2(CCN3CC2CC2)C1O5 (configuration not stated) | 172 to 173
CNc1nc(Nc2cccc(OCCNC(=O)OC(C)(C)C)c2)ncc1[N+](=O)[O-] | 193
CC(=O)OCc1nc2sc(S(N)(=O)=O)cc2c(=O)n1-c1ccccc1Cl | 192 to 194
CN1CC(=O)C(C#N)=C1N | 300
OCc1cn2c(n1)sc1ccccc12 | 131
CCOC(=O)c1cn(CC)nc1OCc1ccc(OCc2nc(-c3ccco3)oc2C)c(OC)c1 | 114 to 115
Cn1c(=O)cc(-c2cccc(Cl)c2)c2cc(C(=O)c3ccoc3)ccc21 | 192
O=C(c1ccccc1)N1CCC(c2nn(-c3ccccc3)c3cc(F)ccc23)CC1 | 149 to 151
O=C(c1ccc(Cl)cc1)c1cccc2c1CCC2C(=O)O (configuration not stated) | 137 to 139
CCOC(=O)c1c(NC2CCCCC2)c(C#N)c(=O)n2ccccc12 | 140 to 141
CNC(=S)C1(c2cnc3ccccc3c2)CCCCC1=CC#N (configuration not stated) | 108 to 111
CC(=O)NCC1CN(c2ccc(N3CCC(O)(C(F)(F)F)C(C)C3)c(F)c2)C(=O)O1 (configuration not stated) | 144 to 146
O=C(OCC=C(c1ccccc1)[N+](=O)[O-])C(F)(F)C(F)(F)C(F)(F)C(F)(F)C(F)(F)C(F)(F)C(F)(F)F | 79 to 81
Oc1ccc(-c2csc(S)n2)cc1O | 236
Oc1ccccc1C=C1c2ccccc2CCc2ccccc21 | 56.9
O=C(O)CCCOc1ccc(N2CCN(c3ccncc3)CC2)cc1[N+](=O)[O-] | 219 to 220
CCCCCCCCCCCCCCCCCCOc1cc(N)cc(OCCCP(=O)(OCC)OCC)c1 | 63 to 65
CNc1nc(-c2ccccc2)c(-c2nc3ccccc3c(=O)n2-c2cccc(C)c2)s1 | 186 to 187
O=C1C2C(C(=O)N1c1ccccc1S)C1(Cl)C(Cl)=C(Cl)C2(Cl)C1(Cl)Cl (configuration not stated) | 195 to 198
CON=CNC(=O)c1ccc(C=NO)cc1C | 88 to 91

Compound | melting point [°C]
CCOc1c(C(=O)O)oc2c3cc(OC)ccc3n(-c3ccccc3)c12 | 166 to 167
COc1cc(C2=C(c3c[nH]c4ncccc34)C(=O)NC2=O)cc(OC)c1OC | 162
Nc1nc2ccc(C(O)C(CO)N3CCC(Cc4ccccc4)CC3)cc2s1 (configuration not stated) | 155 to 157
CCOC(=O)c1ccccc1CN1C(=O)C(CCOc2ccc(CCNC(=O)OC(C)(C)C)cc2)Oc2ccccc21 (configuration not stated) | 103 to 105
CCCCCC(=O)Nc1nc2c(ncn2CCC(CO)CO)c(=O)[nH]1 | 86 to 88
CCc1ccc2oc(=O)c(NC(=O)Nc3ccc(F)cc3F)c(-c3ccccc3C)c2c1 | 210 to 211
NC(=O)c1cc2c(Oc3cccc(C(F)(F)F)c3)cncc2s1 | 175 to 176
COCOc1cc(OC)c(OC)cc1-c1c(C(=O)OC)nnc(C(=O)OC)c1-c1ccc(OC)c(OC)c1 | 131 to 133
Cc1ncc2cc(-c3ccccc3Cl)c(N)nc2n1 | 259 to 260
N#Cc1ccc(N2C(=O)NC3(CCS(=O)(=O)CC3)C2=O)cc1C(F)(F)F | 257 to 258
CC(C)(C)OC(=O)Nc1ccc(C#Cc2nccs2)cc1[N+](=O)[O-] | 137
c1ccc2nc(Cn3ccnc3)ccc2c1 | 106 to 107
Cc1ccc(-c2nc3ccccc3[nH]2)nc1 | 229 to 230
COc1cc(N)c(Cl)cc1C(=O)NC1CCN(C)C1 (configuration not stated) | 185 to 187
O=c1c2cccnc2c(-c2cccc([N+](=O)[O-])c2)nn1Cc1ccncc1 | 167 to 168
Oc1ccc(-c2ccc(O)c3cc(O)c(O)cc23)cc1O | 224 to 226
CC(C)(C)n1ncc(S)c(Cl)c1=O | 112 to 113
CCC(=O)SCC(CC(=O)c1ccccc1)C(=O)O (configuration not stated) | 76 to 78
O=C(O)c1cc([N+](=O)[O-])ccc1Sc1cccc(Br)c1 | 202 to 206
COCC(F)Cn1ccnc1[N+](=O)[O-] (configuration not stated) | 39 to 44
C=C(Cc1ccc(C=Cc2ccc(CC(=C)C(=O)OCC)cc2)cc1)C(=O)O | 123 to 125
NS(=O)(=O)c1ccc(NN=C2C(=O)Nc3ccc(C(=O)NCCCO)cc32)cc1 | > 230
CC(C)(C)C(=O)CCSC(=S)Nc1ccc(Cl)cn1 | 111
CON(C)C(=O)Nc1ccc(CN2OCCC(C)(SC)C2=O)c(Cl)c1 (configuration not stated) | 88 to 91

Compound | melting point [°C]
N#Cc1cc2ccccc2n1-c1ccc(CO)cc1 | > 270
CCCCOc1cc(CCC(=O)O)ccc1-c1cccc(CN(C)C(=O)c2ccc(OC)cc2)c1 | 39 to 41
COCOc1cccc(CN(C)c2cnc(-c3ccccc3)c(-c3ccccc3)n2)c1 | 109 to 111
Cc1noc(=O)c2ccc(NC(=O)C(C)(O)CC(C)(C)c3ccccc3)cc12 (configuration not stated) | 173 to 175
Cc1c(O)ccc2c(=O)c(-c3cccc(C(F)(F)F)c3)coc12 | 283 to 284
Cc1nc(N2CCN(CCCC(F)(F)F)C2=O)sc1C(=O)NCc1cccnc1 | 167 to 169
CCOC(=O)C(C)COc1ccccc1-c1cc(C#N)c(=O)[nH]c1C (configuration not stated) | 167 to 170
O=Cc1cccc(-c2cc3c4c(ccn4C(=O)CNC3)c2)c1 | 192 to 194
ON=Cc1cc(-c2ncc(C(F)(F)F)cc2Cl)ccc1Cl | 173 to 174
CC(O)(Cc1ccccc1)CN1CCC2(CC1)CSC1=C(O2)c2ccccc2C(=O)C1=O (configuration not stated) | 186 to 187
Oc1ccc2c(c1O)OCC(c1cccc(F)c1)C2 (configuration not stated) | 148 to 149
Cc1cc(C(F)(F)F)cc(N(C(N)=O)c2c(Cl)cccc2Cl)n1 | 165
CCNC1N=CN(c2ccccc2C)C(=O)N1 (configuration not stated) | 208 to 210
CC1(CC(=O)O)CCc2ccccc2C1=O (configuration not stated) | 114 to 116
CC(C)c1cccc(C(C)C)c1NC(=O)N(Cc1ccccc1)[C@H]1CC[C@@H](c2ccccc2)CC1 | 148 to 149
COc1cc2c(c(OC(C)=O)c1)C1CCC3(C)C(=O)C(Br)CC3C1CC2 (configuration not stated) | 188 to 190
CCCCn1nc(C(C)C)c(C(=O)O)c1Cc1ccc(-c2ccccc2-c2nnn[nH]2)cc1 | 103 to 108
CCS(=O)c1cc(C(=O)NCC2CCCN2CC2CC2)c(OC)cc1N (configuration not stated) | 158 to 162
CN(C)C1CCN(S(=O)(=O)c2ccc(Nc3ccnc4cc(Cl)ccc34)cc2)CC1 | 230 to 231
Cc1ccc(C=Cc2cccc(C#N)n2)cc1 | 137 to 138
N#Cc1c(N)c2ccccc2[nH]c1=O | > 250
c1cc(-c2noc(C3CC3)n2)cnn1 | 115 to 117
CN(C=O)CNC(=O)c1cc(Cl)nc(Cl)c1 | 150 to 155
COc1cc2c(=O)c(S(C)=O)cn(C)c2cc1Cl (configuration not stated) | 263 to 265
